Source: US20250011715A1, “METHOD FOR PRODUCING INNER EAR STRIA VASCULARIS MARGINAL CELLS, CHEMICAL AGENT ASSESSMENT METHOD, AND CELL CULTURE FOR ASSESSING CHEMICAL AGENT” (THE KITASATO INSTITUTE, priority 2021, published 2025)

Tests used:
[1] = tested on: inner ear stria vascularis marginal cells (cell mass after suspension culture) from human iPS cells; details: HBSS containing 2 mM EDTA, on ice 15 minutes, 4 kDa FITC-Dextran 2 mg/mL, Day 61, versus EDTA non-treatment; FIG. 18
Experimental: The inner ear progenitor cells were obtained from human iPS cells by the same method as in Test Example 1, and suspension culture was continued until the 49th day (Day 61) after the start of the suspension culture by the same method as in Test Example 2 using the inner ear progenitor cells.
For the obtained cells, a barrier function assay was performed. Specifically, the culture after the suspension culture was put into a microtube having a volume of 1.5 mL for each cell, and centrifuged, the culture medium was discarded, and 0.5 mL of HBSS containing 2 mM EDTA was added. In addition, as a control, a sample to which HBBS containing no EDTA was added was also prepared under the same conditions. Each of the samples was placed on ice for 15 minutes, and then 4 kDa FITC-Dextran was added to each of the samples to a concentration of 2 mg/mL, and the samples were suspended and immediately observed with a confocal microscope.

OTX2 gene = OTX2 gene expression by qPCR during differentiation induction into inner ear stria vascularis marginal cells; assay type: cell-based, human; details: Day 60; insulin-free medium (N21-Ins) versus B27+N2 medium and insulin-free medium with 1.5 μM insulin added from Day 20; FIG. 17
Experimental: The differentiation from human iPS cells into inner ear progenitor cells was induced by the same method as in Test Example 1, the cells on the 12th day (Day 12) from the start of the differentiation induction were detached off with Accutase, an equal amount of PBS was added thereto, the cells were passed through a nylon mesh (pore size: 40 μm), and the number of cells was counted with a hemocytometer.
The cells were suspended to a concentration of 5×10^5 cells/10 mL and seeded in a low adhesion 6-well plate (trade name “Corning Ultra-Low Attachment Plate”, Corning Inc.), and suspension culture was started under low oxygen conditions (4% of O2, 5% of CO2). […]
In any of the above Conditions 1) to 3), the cells on the 48th day (Day 60) after the start of the suspension culture were collected, and the expression level of the OTX2 gene, which is known to be expressed on the Reissner's membrane, which is an inner ear organ, and known to be poorly expressed in the inner ear stria vascularis marginal cells, was quantified by qPCR in the same manner as in Test Example 1.

## O=C(O)CN(CCN(CC(=O)O)CC(=O)O)CC(=O)O [EDTA]
[1]
  barrier function between cells (transfer of FITC-Dextran to the inside of the cell mass): calcium-dependent barrier function was impaired

## insulin
OTX2 gene
  expression level of OTX2: low in a case where the culture medium did not contain insulin as compared with a case where insulin was contained in the culture medium
